From PMC1968247 (British Journal of Cancer, 1993)
Read-outs that look alike come from different tables or passages of the source.

Legend:
MAC 15A ascites tumour = assay: Anti-tumour activity against MAC 15A (median survival time); assay type: in vivo, NMRI mice; conditions: 60 mg kg-1 ip
Procedure: (§1) Br. J. Cancer (1993), 67, 441 446 t? […] Bibby Clinical Oncology Unit, University of Bradford, West Yorkshire, BD7 JDP, UK. […] In vivo anti-tumour activity was examined against three transplantable adenocarcinomas of the mouse colon and in vivo bone marrow toxicity was assessed using a spleen colony forming unit assay. The pharmacokinetic behaviour of the drug in vivo and drug stability in vitro was analysed by gas chromatography with electron capture detection. […] Clinical responses to cytotoxic agents have been largely restricted to the haematological malignancies while the majority of human solid tumours have remained refractory to chemotherapy (Marsoni et al., 1987). […] However, their clinical usefulness has been limited by non-selective host toxicity, particularly myelosuppres- sion. The chloroethylnitrosoureas decompose spontaneously in aqueous solution to generate reactive intermediates that are capable of alkylating and carbamoylating nucleophilic targets (Cheng et al., 1972). Alkylation reactions consist of chloroethylations and hydroxyethylations of DNA (Tong et al., 1982). Chloroethylation of 06-guanine with subsequent cross-link formation is considered to be the most important cytotoxic reaction (Lown et al., 1978) while hydroxyethyla- tion reactions are thought to be responsible for their mutagenic and carcinogenic effects (Pelfrene et al., 1976; Swenson et al., 1979). […] In the search for other types of compound that would chloroethylate DNA, a series of 2-haloethylsulphonates was synthesised (Shealy et al., 1983). […] Recently, the NCI has introduced a new disease-orientated screening programme based on the assessment of the in vitro cytotoxicity of a panel of cell lines representing the common clinical forms of human cancers using a colorimetric assay (Boyd, 1989). […] One reason for this discrepancy is that the in vitro tests ignore the potential role played by the pharmacokinetic behaviour and bioavailability of a drug in determining tumour responses in vivo. […] It has been used extensively as part of the pre-clinical evaluation of new anti-cancer agents within the Screening and Pharmacology Group of the EORTC (Bibby et al., 1988b). The feasibility of performing minimal toxicity studies in conjunction with anti-tumour studies has been described (Bibby et al., 1988b). […] Correspondence: A.M. Matthew. Received 6 December 1991; and in revised form 13 October 1992. Br. J. Cancer (1993), 67, 441-446 '?" Macmillan Press Ltd., 1993 442 A.M. MATIHEW et al. ethylating agents with improved therapeutic indices. The assessment of stem cell survival has been recommended to study irreversible cytotoxic bone marrow injury (Schofield, 1986) and this can be performed readily in mice using a spleen colony forming unit assay. […] In vitro activity was assessed against a panel of established murine and human tumour cell lines while in vivo anti-tumour responses were evaluated against an ascitic tumour, MAC 15A, and two solid subcutaneous (sc) tumours, MAC 13 and MAC 26. MAC 13 is relatively nitrosourea-sensitive due to a low level of the repair enzyme 06-alkylguanine-DNA alkyltransferase while MAC 26 is relatively nitrosourea-resistant due to a high repair enzyme level (Lunn et al., 1989). In vivo bone marrow toxicity and pharmacokinetic studies and in vitro drug stability studies were performed in conjunction with the anti-tumour studies. […] Chlorozotocin was dissolved in 10% dimethylsulphoxide (DMSO)/arachis oil. Drug solutions were prepared at an appropriate concentration for the desired in vivo dose to be administered in 0.1 ml per 10 g body weight by intra- peritoneal (ip) or intravenous (iv) injection and for the desired final concentration in vitro to be achieved upon a 1 in 10 dilution. […] Chemosensitivity testing In vitro chemosensitivity was assessed using a modified micro-tetrazolium (MTT) assay (Twenty- man & Luscombe, 1987).

MAC 13 tumours = assay: Anti-tumour activity against MAC 13 (tumour weight); assay type: in vivo, NMRI mice; conditions: 60 mg kg-1 ip
Procedure: as §1

MAC 26 tumours = conditions: for Tumour growth delay: MAC 26; for Survivors: MAC 26 bearers
Procedure: as §1

bone marrow = conditions: 24 h
Procedure: as §1

[1] = Maximum tolerated dose, full dose range to the point of toxicity; conditions: NMRI, mouse, in vivo, ip
Procedure: Br. J. Cancer (1993), 67, 441 446 t? […] Bibby Clinical Oncology Unit, University of Bradford, West Yorkshire, BD7 JDP, UK. […] In vivo anti-tumour activity was examined against three transplantable adenocarcinomas of the mouse colon and in vivo bone marrow toxicity was assessed using a spleen colony forming unit assay. The pharmacokinetic behaviour of the drug in vivo and drug stability in vitro was analysed by gas chromatography with electron capture detection. […] Clinical responses to cytotoxic agents have been largely restricted to the haematological malignancies while the majority of human solid tumours have remained refractory to chemotherapy (Marsoni et al., 1987). […] However, their clinical usefulness has been limited by non-selective host toxicity, particularly myelosuppres- sion. The chloroethylnitrosoureas decompose spontaneously in aqueous solution to generate reactive intermediates that are capable of alkylating and carbamoylating nucleophilic targets (Cheng et al., 1972). Alkylation reactions consist of chloroethylations and hydroxyethylations of DNA (Tong et al., 1982). Chloroethylation of 06-guanine with subsequent cross-link formation is considered to be the most important cytotoxic reaction (Lown et al., 1978) while hydroxyethyla- tion reactions are thought to be responsible for their mutagenic and carcinogenic effects (Pelfrene et al., 1976; Swenson et al., 1979). […] The assessment of stem cell survival has been recommended to study irreversible cytotoxic bone marrow injury (Schofield, 1986) and this can be performed readily in mice using a spleen colony forming unit assay. […] In vitro activity was assessed against a panel of established murine and human tumour cell lines while in vivo anti-tumour responses were evaluated against an ascitic tumour, MAC 15A, and two solid subcutaneous (sc) tumours, MAC 13 and MAC 26. […] Chemosensitivity testing In vitro chemosensitivity was assessed using a modified micro-tetrazolium (MTT) assay (Twenty- man & Luscombe, 1987).

O=NN(CCCl)C(=O)N[C@H]1C(O)O[C@H](CO)[C@@H](O)[C@@H]1O (stereo partly drawn) [Chlorozotocin, reference compound]
T/C% (MAC 15A ascites tumour): 288% | % Tumour weight inhibition (MAC 13 tumours): 59.2% | Tumour growth delay (MAC 26 tumours; 60 mg kg-1 ip): 0 days | Tumour growth delay (MAC 26 tumours; 80 mg kg-1 ip): Toxic | Survivors (MAC 26 tumours; 60 mg kg-1 ip): 9/9 | Survivors (MAC 26 tumours; 80 mg kg-1 ip): 3/9 | Survival fraction (bone marrow; 15 mg kg-1 ip): 0.86 | Survival fraction (bone marrow; 30 mg kg-1 ip): 0.80 | MTD [1]: 60 mg/kg
